In patent US20160331771A1, “Treatment of Hyperproliferative Disorders Using Cardiac Glycosides” (EpicentRx, Inc., priority 2008, published 2016):

Tests used:
[1] = when used alone; cited from earlier work
[2] = Example 2: two siblings given digoxin daily; format: in vivo, human; conditions: for improvement in pain levels and functionality: both patients
Protocol: Two siblings with severe rheumatoid arthritis characterized by progressive pain, stiffness and swelling of joints in spite of treatment with NSAIDs, narcotics, and immunosuppressants were given 0.125 mg of digoxin daily. No response was noted until the 5th day of treatment at which time both patients reported about a 10% improvement in pain levels and functionality, 2 weeks later the dose of digoxin was doubled to 0.25 mg and the patients both noted a proportional improvement in pain levels and functionality to 20%.

[3] = not given; remark: listed apart in the source

CN(Cc1cnc2nc(N)nc(N)c2n1)c1ccc(C(=O)N[C@@H](CCC(=O)O)C(=O)O)cc1 [Methotrexate]
effectiveness of prior therapy (Methotrexate 5-10 mg q week with calcipotriene, phototherapy and NSAIDs, prior 4 months): moderately effective

C[C@H]1O[C@@H](O[C@H]2[C@@H](O)C[C@H](O[C@H]3[C@@H](O)C[C@H](O[C@H]4CC[C@@]5(C)[C@H](CC[C@@H]6[C@@H]5C[C@@H](O)[C@]5(C)[C@@H](C7=CC(=O)OC7)CC[C@]65O)C4)O[C@@H]3C)O[C@@H]2C)C[C@H](O)[C@@H]1O [digoxin, 4-[(3S,5R,8R,9S,10S,12R,13S,14S,)-3-[(2S,4S,5R,6R)-5-[(2S,4S,5R,6R)-5-[(2S,4S,5R,6R)-4,5-dihydroxy-6-methyl-oxan-2-yl]oxy-4-hydroxy-6-methyl-oxan-2-yl]oxy-4-hydroxy-6-methyl-oxan-2-yl]oxy-12,14-dihydroxy-10,13-dimethyl-1,2,3,4,5,6,7,8,9,11,12,15,16,17-tetradecahydrocyclopenta[a]phenanthren-17-yl]-5H-furan-2-one]
plasma digoxin concentration at which adverse reactions are rare [1]: < 0.8 µg/L | joint pain (for one month, next monthly visit): abated | psoriasis at follow up (remained on 0.125 mg of digoxin, 2 months later, elbows and ankles, with return of joint pain): mild recrudescence | improvement in pain levels and functionality ([2]; 0.125 mg of digoxin daily, 5th day of treatment): ~10% | side effects ([2]; digoxin 0.125 mg then 0.25 mg): No side effects | improvement in pain levels and functionality ([2]; dose doubled to 0.25 mg 2 weeks later): 20% | regression of wound area ([3]; 0.125 mg of digoxin, within 3 days): about 20%

OC(Cn1cncn1)(Cn1cncn1)c1ccc(F)cc1F [fluconazole]
change in the affected area ([3]; 1 week of treatment, before digoxin): no change
